Assay results as given in paper PMC7663809, “Dual-Inhibitors of N-Myc and AURKA as Potential Therapy for Neuroendocrine Prostate Cancer” (International Journal of Molecular Sciences, 2020).

Assays:
[1] = test system: 22Rv1 cells; experiment: Cell viability assay, 22Rv1; assay type: cell-based, human; conditions: for Growth inhibition of 22Rv1 cells / IC50: serial dilution; for Growth inhibition of 22Rv1 cells: up to 10 µM; for Inhibitory activity in 22Rv1: 1 μM; for Inhibitory activity in 22Rv1 / viability at 5 µM / viability at 10 µM / IC50: 72 h; for viability at 5 µM / viability at 10 µM / IC50: Homo sapiens, 22Rv1; for viability at 5 µM / viability at 10 µM: read-out: % activation (cell viability) in 22Rv1; for IC50: read-out: IC50, growth inhibition of 22Rv1 cells
Description: (§1) NCI-H660 cells were purchased from the American Type Culture Collection (ATCC) and grown in RPMI medium supplemented with 5% fetal bovine serum (FBS), 1% Isulin-Transferrin-Selenium (Thermo Fisher, 41400-045, Waltham, MA, USA), 10 nM b-estradiol (Sigma, E8875; Darmstadt, Germany), 10 nM hydrocortisone (Sigma H0888), and 1% matrigel. HO15.19 cells were a generous gift from John Sidivy at Brown University and were cultured in Dulbecco’s modified Eagle’s medium (DMEM) (ATCC 30–2002) supplemented with 10% FBS. LNCaP-N-Myc and 22rv1-N-Myc cells were a generous gift from David Rickman at Weill Cornell Medicine (New York, NY, USA) and were cultured in RPMI supplemented with 10% FBS.
(§2) Viability of N-Myc -overexpressing LNCaP and 22Rv1 was done with 5000 cells per well in RPMI supplemented with 10% FBS and read with Cell Titer Glo (Promega, cat# G7572; Madison, WI, USA) according to the manufacturer’s protocol. Eagle’s minimum essential medium (EMEM) supplemented with 10% FBS was used for the Myc-negative HO15.19 cells at 2000 cells per well and 20,000 neuroendocrine NCI-H660 cells were plated in RPMI supplemented with 5% FBS, 1% Isulin-Transferrin-Selenium (Thermo Fisher, 41400-045), 10 nM b-estradiol (Sigma, E8875), 10 nM hydrocortisone (Sigma H0888), and 1% matrigel. All cells were incubated for 72 h with the compounds.

[2] = test system: LNCaP cells; experiment: Cell viability assay, LNCaP; assay type: cell-based, human; conditions: for Growth inhibition of LNCaP cells / IC50: serial dilution; for Growth inhibition of LNCaP cells: up to 10 µM; for Inhibitory activity in LNCaP: 1 μM; for Inhibitory activity in LNCaP / viability at 5 µM / viability at 10 µM / IC50: 72 h; for viability at 5 µM / viability at 10 µM / IC50: Homo sapiens, LNCaP; for viability at 5 µM / viability at 10 µM: read-out: % activation (cell viability) in LNCaP; for IC50: read-out: IC50, growth inhibition of LNCaP cells
Description: LNCaP were plated at 5000 cells per well in RPMI 1640 containing 5% CSS in a 96-well plate, treated with test compounds (0–25 μM) for 72 h. Cell density was measured using the PrestoBlue assay according to the manufacturer’s protocol. The percentage of cell survival was normalized to the cell density of control wells treated by vehicle. […]

[3] = test system: NCI-H660 cells; experiment: Cell viability assay, NCI-H660; assay type: cell-based; conditions: 72 h; for Inhibitory activity in NCI-H660: 1 μM; for viability at 5 µM / viability at 10 µM: NCI-H660, read-out: % activation (cell viability) in NCI-H660
Description: as §1, §2

[4] = target: N-Myc-Max DBD (Homo sapiens, UniProt P04198+P61244); experiment: Biolayer interferometry: binding of N-Myc-Max complex to biotinylated E-box DNA; conditions: 100 µM and 200 µM
Sequence of N-Myc-Max DBD (P04198 377-464): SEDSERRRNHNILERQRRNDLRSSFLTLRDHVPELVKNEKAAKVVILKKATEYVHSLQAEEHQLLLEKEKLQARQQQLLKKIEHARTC
Sequence of N-Myc-Max DBD (P61244 22-102): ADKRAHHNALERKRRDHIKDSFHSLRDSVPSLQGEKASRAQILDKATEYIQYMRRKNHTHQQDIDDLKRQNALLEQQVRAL
Description: The direct interaction between biotinylated E-box oligo immobilized on a streptavidin biosensor and a purified N-Myc-Max complex (0.05 mg/ml) was quantified by BLI using OctetRED (ForteBio). The DNA was first bound to the super-streptavidin sensors. The sensors were next moved into wells containing the reaction buffer (20 mM Tris pH 8, 150 mM NaCl, 5% glycerol, 0.2 mM TCEP, 5% dimethylsulfoxide) for measuring the baseline and next into the N-Myc-Max complex alone or in presence of the tested inhibitors to study the association of the complex to the DNA.

[5] = test system: Myc-Max; experiment: Myc-Max luciferase transcription inhibition (Cignal Myc reporter) assay in LNCaP cells; assay type: cell-based; conditions: Homo sapiens, 24 h, 0-25 μM, 1 day
Description: The eGFP Myc transcriptional activity was assayed as previously described. Briefly, cell transfection was performed using TransIT-2020 transfection reagents according to the manufacturer’s instructions. LNCaP cells were plated at 10,000 cells per well and treated for 1 day with the indicated concentration of compound with increasing concentrations (0−25 μM) of compounds for screening and measuring IC50. Myc reporter activity was measured using the Cignal Myc Reporter Assay Kit from Qiagen (#336841; Hilden, Germany) according to the manufacturer’s instructions.

[6] = target: T1, AURKA (Homo sapiens, UniProt O14965); experiment: Aurora A kinase activity assay (ADP-Glo); assay type: biochemical; conditions: read-out: AURKA enzyme activity remaining
T1 construct: 10 ng Aurora-A catalytic domain
T1 sequence (O14965 133-383 limits assumed): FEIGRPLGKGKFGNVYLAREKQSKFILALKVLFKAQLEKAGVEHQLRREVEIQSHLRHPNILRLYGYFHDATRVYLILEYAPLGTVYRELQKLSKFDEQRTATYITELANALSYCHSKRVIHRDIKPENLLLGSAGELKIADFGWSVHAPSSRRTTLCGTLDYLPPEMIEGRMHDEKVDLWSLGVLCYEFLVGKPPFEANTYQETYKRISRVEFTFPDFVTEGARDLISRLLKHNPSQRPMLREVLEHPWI
Description: AURKA kinase assays were performed using the ADP-Glo Kinase assay (Promega) according to the manufacturer protocol. Measurement of Aurora-A activity was carried out using reactions containing (per well):10 ng Aurora-A catalytic domain, 50 uM ATP, and 0.5 myelin basic protein (MBP), in 5% dimethyl sulfoxide (DMSO). Reactions were incubated at room temperature for 60 min, and luminescence data (integration time: 0.5–1 s) was recorded on a Tecan M200 Pro reader (Männedorf, Switzerland).

[7] = test system: HO15.19 cells; experiment: Growth / viability in Myc negative cell line HO15.19; assay type: cell-based
Description: as §1
as §2, with “All cells were incubated for 72 h with the compounds.” left out

| Disruption of DNA binding to N-Myc-Max DBD (BLI) [4] | IC50 [1] | IC50 [5] | IC50 [2] | SMILES | Growth inhibition of 22Rv1 cells [1] | Growth inhibition of LNCaP cells [2] | Inhibitory activity in NCI-H660 [3] | viability at 5 µM [3] | viability at 10 µM [3] | Inhibitory activity in 22Rv1 [1] | viability at 5 µM [1] | viability at 10 µM [1] | Inhibitory activity in LNCaP [2] | viability at 5 µM [2] | viability at 10 µM [2] | also measured |
| --- | --- | --- | --- | --- | --- | --- | --- | --- | --- | --- | --- | --- | --- | --- | --- | --- |
| – | – | – | – | CCc1ccc(/C=C2/SC(=S)NC2=O)cc1 [10058-F4, reference compound] | ineffective | ineffective | – | – | – | – | – | – | – | – | – | – |
| effectively disrupt | 3.71 µM | 2 µM | 3.05 µM | N#Cc1ccc(NNC(=O)c2ccc(Nc3nccc(Nc4cc(C5CCCC5)n[nH]4)n3)cc2)c(C(F)(F)F)c1 [compound 70812] | – | – | No discernable inhibitory activity | 82.9% | 52.1% | No discernable inhibitory activity | 66.5% | 16.6% | No discernable inhibitory activity | 32.5% | 1.4% | remaining activity at 5 µM ([6]; 5 µM compound): 21.1%; remaining activity at 10 µM ([6]; 10 µM compound): 19.9%; remaining activity at 15 µM ([6]; 15 µM compound): 18.7%; remaining activity at 30 µM ([6]; 30 µM compound): 21.4% |
| weak disruption | 15.6 µM | 4 µM | 11.1 µM | N#Cc1ccc(NNC(=O)c2ccc(C(F)(F)F)cc2)c(C(F)(F)F)c1 [compound 70551, N′-[4-cyano-2-(trifluoromethyl)phenyl]-4-(trifluoromethyl)benzohydrazide] | – | – | no significant inhibitory activity | > 75% | 49.2% | no significant inhibitory activity | > 75% | 78.8% | no significant inhibitory activity | > 75% | 49.7% | Toxicity in HO15.19 ([7]; 20 μM, 120 h): slight toxicity; Effect on HO15.19 growth ([7]; N-Myc null cell line, 120 h, below 20 μM): minimal effect |
| – | – | – | – | O=C(Nc1ccc(Nc2nccc(Nc3cc(C4CCCC4)[nH]n3)n2)cc1)Nc1cccc(C(F)(F)F)c1 [CD532, reference compound] | – | – | – | – | – | – | – | – | – | – | – | Cytotoxicity in N-Myc negative cell line HO15.19 ([7]; 10, 5 and 1 µM, 72 h): cytotoxicity |
| – | – | – | – | O=[N+]([O-])c1ccc(Nc2ccccc2-c2ccccc2)c2nonc12 [10074-G5, reference compound] | ineffective | ineffective | – | – | – | – | – | – | – | – | – | – |
